Results from US9163049B2, “Medicament comprising a reducing alkyl-sugar monomer for the treatment of inflammatory disorders” (PIERRE FABRE DERMO-COSMETIQUE, priority 2003, dated 2015).

Experiments:
keratinocytes = assay: Toxicity test: viability of keratinocytes; assay type: cell-based; settings: for % viability: compared to control 100%
From the text: (§1) MTT [3-(4,5-[…])-2,5-diphenyl tetrazolium bromide] Reduction Technique (Sold by Sigma).
(§2) This technique corresponds to a colorimetric test allowing quantification of living, metabolically active cells in a non-radioactive manner. MTT is a cationic molecule which is bound to the membranes of mitochondria in a potential-dependant fashion. On the level of the mitochondria, MTT will be reduced to formazan blue by mitochondrial dehydrogenase. The living cells are thus colored blue, in contrast with the dead cells which remain transparent. The measure of viability is then carried out by measurement of the optical density using an automatic reader.
XTT Tetrazolium Salt Reduction Technique.
This is a technique allowing quantification of cellular proliferation and of the number of living (metabolically active) cells, without the incorporation of radioactive isotopes. XTT, yellow in color, is a cationic molecule which is bound to the membranes of mitochondria in a potential-dependant fashion, as does MTT.
On the level of the mitochondria, XTT will be reduced to formazan (orange) by mitochondrial tetrazolium reductase. […] Indeed, the reduction product is soluble within the cell. The method is thus faster. Living cells, in the absence and presence of a treatment become colored, in contrast with dead cells which remain colorless. The level of formazan product is detected with the spectrophotometer at a wavelength of 450 nm and is directly proportional to the number of metabolically active cells.
Keratinocytes were isolated and placed in culture from human skin biopsies arising from anonymous donors following a plastic surgery procedure. Measurements of optical density (absorbance) of the 4 wells treated with the same product concentration were averaged. This average was compared with the average of the measurements obtained for the 4 control wells (Student's t-test comparison of means significant difference at 95% if p<0.05 and 99% if p<0.01).
The viabilities of the treated cells are expressed as a percentage compared to the control (untreated cells) of 100% (OD treated/OD control×100).

[1] = system: endothelial cells (appendix, brain microvascular, mesenteric lymphatic ganglia, peripheral lymphatic ganglia, skin microvascular); assay: Cytotoxicity test (MTT) on endothelial cell lines; assay type: cell-based
From the text: as §1, §2
Endothelial cells were placed in culture, immortalized and stabilized in their phenotype. The cell lines studied were appendix endothelial cells, brain microvascular endothelial cells, mesenteric lymphatic ganglia endothelial cells, peripheral lymphatic ganglia endothelial cells and skin microvascular endothelial cells.
The cytotoxicity test was carried out by means of a biochemical test on the transformation of a tetrazolium salt, MTT. […] Viability is indeed always greater than 85%, and this is true for all of the cells lines studied.

[2] = system: PGE2 released by the NHK stimulated by PMA; assay: Assay of the PGE2 released by the NHK stimulated by PMA; assay type: cell-based, human; settings: for Percentage of inhibition of the release of PGE2: NHK + PMA 1 ng/ml, 24 hours
Description: Assay of the PGE2 released by the NHK stimulated by PMA.
Alkyl-rhamnosides were evaluated as an inhibitor of the release of PGE2 in cellular supernatants. These products were placed in the presence of the NHK at the same time as the PMA at 1 ng/ml. Each condition tested was evaluated for stimulation on 4 wells of NHK.
The results summarized in Table 5 below represent the mean PGE2 concentration values (pg/ml), after 24 hours of treatment, given in each of the cellular supernatants, stimulated or not, and reported in a quantity of cells expressed in μg.

HSkMEC = assay: Adhesion of lymphocytes on non-activated endothelial cells HSkMEC; assay type: cell-based; settings: for adhesion between lymphocytes and endothelial cells, Medium: HSkMEC, Medium (no TNF), control = 1.000
Description: (§3) The influence of alkyl-rhamnosides on adhesion between lymphocytes and […] endothelial cells, in particular the line of endothelial cells arising from the skin (HSkMEC), was evaluated. These cells were placed in the presence of a strong activator, TNF-α.
(§4) Adhesion is carried out in vitro under static conditions. The endothelial cells were cultured in wells in order to obtain a monolayer. The cells were pretreated for 5 hours in the presence or absence of alkyl-rhamnosides. As dodecyl-rhamnoside required a content of 0.1% by volume to be soluble in the culture media, a control containing 0.1% glycerol was also analyzed.
(§5) The suspension of labeled lymphocytes was at a concentration making it possible to obtain a ratio of 5 lymphocytes per endothelial cell. Adhesion was carried out for 30 minutes at ambient temperature. The label binds irreversibly to the lipids of the plasma membrane of the cells without affecting the biological properties of the membrane or cellular viability.
(§6) The adhesion of the lymphocytes on the endothelial cells was quantified by flow cytometry.

HPLNEC.B3 = assay: Adhesion of lymphocytes on non-activated endothelial cells HPLNEC.B3; assay type: cell-based
Description: as §4, §5, §6

HMLNEC = assay: Adhesion of lymphocytes on non-activated endothelial cells HMLNEC; assay type: cell-based
Description: as §4, §5, §6

HAPEC = assay: Adhesion of lymphocytes on non-activated endothelial cells HAPEC; assay type: cell-based
Description: as §4, §5, §6

HBrMEC = assay: Adhesion of lymphocytes on non-activated endothelial cells HBrMEC; assay type: cell-based
Description: as §4, §5, §6

[3] = system: HSkMEC activated with TNF-α; assay: Adhesion between lymphocytes and TNF-α activated endothelial cells (HSkMEC); assay type: cell-based; settings: for Control/TNF ratio / adhesion between lymphocytes and endothelial cells, TNF: HSkMEC; for adhesion between lymphocytes and endothelial cells, TNF: control in medium = 1.000
Description: as §3, §4, §5, §6
The results of adhesion between lymphocytes and activated endothelial cells, summarized in Table 5 below, arise from groups of three adhesion tests.

[4] = system: proliferation of lymphocytes in auricular lymphatic ganglia; settings: in vivo
From the text: (§7) This test determines the sensitizing capacity of the test substance by measuring the proliferation of lymphocytes in auricular lymphatic ganglia. The proliferation of lymphocytes will be measured by determining the incorporation of tritiated methyl thymidine.

[5] = system: proliferation of lymphocytes in auricular lymphatic ganglia; assay: Sensitizing capacity by the LLNA method (local lymph node assay)
From the text: as §7

reconstituted epidermis = assay: Cutaneous irritant potential on reconstituted epidermis; assay type: cell-based; settings: Rh-C5 concentration 30%, Triton 4%
From the text: The evaluation of cutaneous irritant potential on reconstituted epidermis is an alternative to animal experimentation. The principle is based on the evaluation of the irritant potential of the product tested by: • the study of cytotoxicity by quantification of the release of lactate dehydrogenase (LDH) and by reduction of MTT to […], • the study of inflammation markers by quantification of the release of interleukins and IL8.

Q: How did the “concentrations at which cytotoxicity is exhibited” value (keratinocytes) turn out when CCCCCOC1O[C@@H](C)[C@H](O)[C@@H](O)[C@H]1O (stereo partly shown) [Rh-C5, pentyl-rhamnoside] was run?
A: greater than 2 mg/ml

Q: What about the “% viability” value (keratinocytes; 0.1 mg/ml) of the same compound?
A: 94%

Q: What about the “% viability” value (keratinocytes; 1 mg/ml) of the same compound?
A: 74%

Q: What about the “% viability” value (keratinocytes; 2 mg/ml) of the same compound?
A: 53%

Q: And the “% viability” value (keratinocytes; 5 mg/ml)?
A: 40%

Q: What about the Viability ([1]; all of the cells lines studied) of the same compound?
A: greater than 85%

Q: What about the toxicity ([1]; endothelial cell lines) of the same compound?
A: no toxicity

Q: And the “Percentage of inhibition of the release of PGE2” value ([2]; 0.02 mg/ml)?
A: 29%

Q: What about the “Percentage of inhibition of the release of PGE2” value ([2]; 0.05 mg/ml) of the same compound?
A: 61%

Q: And the “Percentage of inhibition of the release of PGE2” value ([2]; 0.1 mg/ml)?
A: 64%

Q: What about the “Percentage of inhibition of the release of PGE2” value ([2]; 1 mg/ml) of the same compound?
A: 89%

Q: What about the “inhibiting effect on the adhesion of lymphocytes compared to rhamnose” value (HSkMEC; 1.1 mM, non-activated HSkMEC) of the same compound?
A: 37.3%

Q: And the “adhesion between lymphocytes and endothelial cells, Medium” value (HSkMEC)?
A: 1.900

Q: And the “increase in adhesion of lymphocytes” value (HPLNEC.B3; 1.1 mM)?
A: 37.9%

Q: What about the “increase in adhesion of lymphocytes compared to rhamnose” value (HMLNEC; 1.1 mM) of the same compound?
A: 96.7%

Q: What about the “effect on adhesion of lymphocytes” value (HAPEC; 1.1 mM) of the same compound?
A: no effect or a very slight effect

Q: What about the “effect on adhesion of lymphocytes” value (HBrMEC; 1.1 mM) of the same compound?
A: no effect or a very slight effect

Q: And the Control/TNF ratio [3]?
A: 1.6

Q: What about the “adhesion between lymphocytes and endothelial cells, TNF” value [3] of the same compound?
A: 3.100

Q: What about the “Conclusion (sensitizing capacity)” value [4] of the same compound?
A: Not sensitizing

Q: What about the sensitizing capacity [4] of the same compound?
A: not sensitizing

Q: What about the DPM/Ganglion ([5]; Concentration 1: 3%) of the same compound?
A: 1240.2 DPM/Ganglion

Q: And the RATIO ([5]; Concentration 1: 3%)?
A: 0.7

Q: What about the DPM/Ganglion ([5]; Concentration 2: 15%) of the same compound?
A: 1041.1 DPM/Ganglion

Q: And the RATIO ([5]; Concentration 2: 15%)?
A: 0.6

Q: What about the DPM/Ganglion ([5]; Concentration 3: 30%) of the same compound?
A: 797.3 DPM/Ganglion

Q: What about the RATIO ([5]; Concentration 3: 30%) of the same compound?
A: 0.5

Q: What does the source list for CCCCCCCCCCCOC1O[C@@H](C)[C@H](O)[C@@H](O)[C@H]1O (stereo partly shown) [Rh-C11, undecyl-rhamnoside]?
A: % viability (keratinocytes; 10 μg/ml): 81%; % viability (keratinocytes; 100 μg/ml): 17%; % viability (keratinocytes; 250 μg/ml): 11%; % viability (keratinocytes; 500 μg/ml): 30%; Percentage of inhibition of the release of PGE2 ([2]; 0.01 mg/ml): 28%; Percentage of inhibition of the release of PGE2 ([2]; 0.02 mg/ml): 28%; activity (inhibition of PGE2 release) ([2]; in the range of 20 μg/ml): activity comparable to pentyl-rhamnoside

Q: How did the “% viability” value (keratinocytes; 0.001 mg/ml) turn out when C[C@H](O)[C@H](O)[C@@H](O)[C@@H](O)C=O [Rhamnose, rhamnose, reference compound] was run?
A: 95%

Q: What about the “% viability” value (keratinocytes; 0.01 mg/ml) of the same compound?
A: 100%

Q: What about the “% viability” value (keratinocytes; 0.1 mg/ml) of the same compound?
A: 98%

Q: What about the “% viability” value (keratinocytes; 1 mg/ml) of the same compound?
A: 104%

Q: What about the cytotoxicity (keratinocytes; even for the highest concentrations) of the same compound?
A: does not exhibit cytotoxicity

Q: And the “adhesion between lymphocytes and endothelial cells, Medium” value (HSkMEC)?
A: 1.630

Q: What about the Control/TNF ratio [3] of the same compound?
A: 1.5

Q: And the “adhesion between lymphocytes and endothelial cells, TNF” value [3]?
A: 2.450

Q: For CCCCCCCCCCCCOC1O[C@@H](C)[C@H](O)[C@@H](O)[C@H]1O (stereo partly shown) [dodecyl-rhamnoside], which “decrease of the adhesion of lymphocytes” value (HSkMEC; 1.5 mM, non-activated HSkMEC) is on record?
A: 34.2%

Q: What about the “adhesion between lymphocytes and endothelial cells, Medium” value (HSkMEC) of the same compound?
A: 3.200

Q: What about the “effect on adhesion of lymphocytes” value (HPLNEC.B3; 1.5 mM) of the same compound?
A: no effect

Q: And the “effect on adhesion of lymphocytes” value (HMLNEC; 1.5 mM)?
A: no effect

Q: And the “increase in adhesion of lymphocytes” value (HAPEC; 1.5 mM)?
A: 44.1%

Q: What about the “effect on adhesion of lymphocytes” value (HBrMEC; 1.5 mM) of the same compound?
A: no effect

Q: And the inhibition of adhesion ([3]; 1.5 μM, endothelial cells)?
A: 63%

Q: What about the Control/TNF ratio [3] of the same compound?
A: 0.59

Q: And the “adhesion between lymphocytes and endothelial cells, TNF” value [3]?
A: 1.900

Q: Which results are given for Triton [reference compound]?
A: IL1α ratio (reconstituted epidermis; 24 hours of application): 36.0; IL8 ratio (reconstituted epidermis; 24 hours of application): 3.7; LDH ratio (reconstituted epidermis; 24 hours of application): 124.7; MTT % viability (reconstituted epidermis; 24 hours of application): 3.0%; IL1α ratio (reconstituted epidermis; 72 hours of application): 7.2; IL8 ratio (reconstituted epidermis; 72 hours of application): 0.9; LDH ratio (reconstituted epidermis; 72 hours of application): 77.3; MTT % viability (reconstituted epidermis; 72 hours of application): 1.5%; Classification (cutaneous irritant potential) (reconstituted epidermis): irritant

Q: With octadecyl-rhamnose [Rh-C18] as the compound, how does the “Percentage of inhibition of the release of PGE2” value ([2]; 0.02 mg/ml) read?
A: 2%
